Results as given in US4740504A, “Antihyperlipidemic amine boranes” (United States Borax & Chemical Corp., priority 1987, dated 1988).

Target: T1, acyl CoA cholesterol acyl transferase (Mus musculus, UniProt O88908)
T1 construct: from tissue
T1 sequence (O88908 1-525): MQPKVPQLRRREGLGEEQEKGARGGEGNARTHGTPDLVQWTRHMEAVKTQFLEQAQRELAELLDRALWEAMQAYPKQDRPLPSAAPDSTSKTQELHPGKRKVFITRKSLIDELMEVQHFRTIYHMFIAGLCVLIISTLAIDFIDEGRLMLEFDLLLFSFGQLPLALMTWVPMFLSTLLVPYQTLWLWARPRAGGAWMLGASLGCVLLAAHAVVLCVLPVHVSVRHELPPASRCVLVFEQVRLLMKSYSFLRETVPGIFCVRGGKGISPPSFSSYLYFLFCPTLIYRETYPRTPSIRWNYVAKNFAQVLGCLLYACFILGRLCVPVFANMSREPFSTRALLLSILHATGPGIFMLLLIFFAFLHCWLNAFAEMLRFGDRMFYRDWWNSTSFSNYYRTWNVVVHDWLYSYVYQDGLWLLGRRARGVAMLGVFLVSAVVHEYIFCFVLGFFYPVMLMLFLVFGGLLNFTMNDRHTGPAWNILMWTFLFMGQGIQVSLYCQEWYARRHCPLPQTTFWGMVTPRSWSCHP
Test: Enzymatic studies in vitro: acyl CoA cholesterol acyl transferase
Type: biochemical
Details: read-out: reduction of acyl CoA cholesterol acyl transferase activity

## [BH3-][N+](C)(C)CCCCCCCCCCCCCCCCCC [I, N-n-Octadecyl-N,N-Dimethylamine Borane]
100 μM
  inhibition at 100 µM: 41%
200 μM
  inhibition at 200 µM: 55%
